Source: US12168085B2, “Surgical system and methods of use” (priority 2021, dated 2024)

Experiments:
myofibroblast formation = settings: Ajmal et al. (2003); cited from earlier work
[1] = time to reach plasma concentrations; assay type: in vivo; settings: when given preoperatively

Row | time to reach plasma concentrations [1] | Structure (SMILES) | effect on myofibroblast formation (myofibroblast formation)
1 |  | O=S(=O)([O-])CCS.[Na+] [MESNA, sodium 2-mercaptoethane sulfonate] | diminish myofibroblast formation
2 | 5 to 15 min | NC[C@H]1CC[C@H](C(=O)O)CC1 [tranexamic acid, trans-4-(aminomethyl)cyclohexanecarboxylic acid] | 
